Results from BindingDB's records for doi:10.1038/sj.bjp.0702293 (Monash University, 1999).

What was measured:
[1] = biological target: 5-hydroxytryptamine receptor 7 (Rattus norvegicus, UniProt P32305)
[2] = biological target: 5-hydroxytryptamine receptor 7 (Cavia porcellus, UniProt P50407)
Chain of 5-hydroxytryptamine receptor 7 (Cavia porcellus, UniProt P50407) (P50407 whole entry): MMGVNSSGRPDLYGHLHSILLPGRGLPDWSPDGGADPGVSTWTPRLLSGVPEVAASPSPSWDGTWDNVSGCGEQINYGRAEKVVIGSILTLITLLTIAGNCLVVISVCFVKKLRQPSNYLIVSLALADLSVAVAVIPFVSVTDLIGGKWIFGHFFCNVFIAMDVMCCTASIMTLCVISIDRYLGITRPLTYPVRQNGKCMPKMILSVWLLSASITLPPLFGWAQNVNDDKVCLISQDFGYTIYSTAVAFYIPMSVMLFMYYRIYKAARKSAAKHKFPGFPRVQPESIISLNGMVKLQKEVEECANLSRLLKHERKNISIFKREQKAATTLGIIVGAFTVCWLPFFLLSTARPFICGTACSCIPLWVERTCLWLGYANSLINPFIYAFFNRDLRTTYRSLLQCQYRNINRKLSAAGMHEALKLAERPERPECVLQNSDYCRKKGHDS

Chain of 5-hydroxytryptamine receptor 7 (Rattus norvegicus, UniProt P32305) (P32305 whole entry): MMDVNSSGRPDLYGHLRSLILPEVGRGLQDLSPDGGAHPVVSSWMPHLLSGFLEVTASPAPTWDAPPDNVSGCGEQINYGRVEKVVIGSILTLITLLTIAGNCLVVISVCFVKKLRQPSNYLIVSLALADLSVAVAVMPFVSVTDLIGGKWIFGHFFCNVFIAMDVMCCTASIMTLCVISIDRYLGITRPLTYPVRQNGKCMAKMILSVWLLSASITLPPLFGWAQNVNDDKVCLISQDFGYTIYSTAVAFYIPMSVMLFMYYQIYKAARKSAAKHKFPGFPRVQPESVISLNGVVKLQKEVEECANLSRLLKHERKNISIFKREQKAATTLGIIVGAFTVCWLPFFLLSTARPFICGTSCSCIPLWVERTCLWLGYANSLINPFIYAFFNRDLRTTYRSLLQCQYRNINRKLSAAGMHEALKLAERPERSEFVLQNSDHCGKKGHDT

| SMILES | Ki [1] | Ki [2] |
| --- | --- | --- |
| Cc1nc2sccn2c(=O)c1CCN1CCC(=C(c2ccc(F)cc2)c2ccc(F)cc2)CC1 | 0.0251 µM | 0.00501 µM |
| Cc1nc2n(c(=O)c1CCN1CCC(c3noc4cc(F)ccc34)CC1)CCCC2 [3-{2-[4-(6-Fluoro-benzo[d]isoxazol-3-yl)-piperidin-1-yl]-ethyl}-2-methyl-6,7,8,9-tetrahydro-pyrido[1,2-a]pyrimidin-4-one(risperidone)] | – | 0.0004 µM |
| CCN(CC)C(=O)[C@@H]1C=C2c3cccc4[nH]cc(c34)C[C@H]2N(C)C1 [(4R,7R)-N,N-diethyl-6-methyl-6,11-diazatetracyclo[7.6.1.0^{2,7}.0^{12,16}]hexadeca-1(16),2,9,12,14-pentaene-4-carboxamide] | – | 0.0004 µM |
| CC(C)NCC(O)COc1cccc2[nH]ccc12 (centres undefined) [LB-46] | > 10 µM | 0.501 µM |
| CN1C[C@@H](NS(=O)(=O)N(C)C)C[C@@H]2c3cccc4c3c(cn4C)C[C@H]21 [MESULERGINE] | 0.01 µM | 0.0126 µM |
| CN1C[C@H](CNC(=O)OCc2ccccc2)C[C@@H]2c3cccc4c3c(cn4C)C[C@H]21 [METERGOLINE] | 0.01 µM | 0.00158 µM |
| CNS(=O)(=O)Cc1ccc2[nH]cc(CCN(C)C)c2c1 [Sumax] | 0.0251 µM | 0.1 µM |
| NCCc1c[nH]c2ccc(O)cc12 [[3H]-5-HT] | – | 0.0001 µM |
| COc1ccc2[nH]cc(CCN)c2c1 [tryptamine, 5-Methoxy] | – | 0.00025 µM |
